Results as given in PubChem BioAssay (NCI).
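Cultured in 96-well plates, cells were exposed to test compound for 48 hours across five concentrations. Abbreviation: GI50, concentration required for 50% inhibition of growth. TGI is the concentration that stops growth completely.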

What was measured:
Test in all cases: DTP human tumour cell line panel, 48 h
U251 CNS = tested on: U251 CNS
ACHN renal = tested on: ACHN renal
UACC-62 melanoma = tested on: UACC-62 melanoma
OVCAR-3 ovarian = tested on: OVCAR-3 ovarian
PC-3 prostate = tested on: PC-3 prostate
SK-OV-3 ovarian = tested on: SK-OV-3 ovarian
HCC-2998 colon = tested on: HCC-2998 colon
SK-MEL-2 melanoma = tested on: SK-MEL-2 melanoma
HL-60(TB) leukemia = tested on: HL-60(TB) leukemia
SF-539 CNS = tested on: SF-539 CNS
CAKI-1 renal = tested on: CAKI-1 renal
BT-549 breast = tested on: BT-549 breast
MOLT-4 leukemia = tested on: MOLT-4 leukemia
KM12 colon = tested on: KM12 colon
NCI-H522 lung = tested on: NCI-H522 lung
K-562 leukemia = tested on: K-562 leukemia
SN12C renal = tested on: SN12C renal
SF-268 CNS = tested on: SF-268 CNS
SF-295 CNS = tested on: SF-295 CNS
EKVX NSCLC = tested on: EKVX NSCLC
COLO 205 colon = tested on: COLO 205 colon
OVCAR-8 ovarian = tested on: OVCAR-8 ovarian
HOP-92 NSCLC = tested on: HOP-92 NSCLC
A498 renal = tested on: A498 renal
RXF 393 renal = tested on: RXF 393 renal
LOX IMVI melanoma = tested on: LOX IMVI melanoma
SK-MEL-5 melanoma = tested on: SK-MEL-5 melanoma
SNB-75 CNS = tested on: SNB-75 CNS
MDA-MB-435 = tested on: MDA-MB-435
RPMI-8226 leukemia = tested on: RPMI-8226 leukemia
786-0 renal = tested on: 786-0 renal
OVCAR-4 ovarian = tested on: OVCAR-4 ovarian
MALME-3M melanoma = tested on: MALME-3M melanoma
A549 NSCLC = tested on: A549 NSCLC
SR leukemia = tested on: SR leukemia
SK-MEL-28 melanoma = tested on: SK-MEL-28 melanoma
HCT-116 colon = tested on: HCT-116 colon
HCT-15 colon = tested on: HCT-15 colon
OVCAR-5 ovarian = tested on: OVCAR-5 ovarian
DU-145 prostate = tested on: DU-145 prostate
SW-620 colon = tested on: SW-620 colon
UACC-257 melanoma = tested on: UACC-257 melanoma
MCF7 breast = tested on: MCF7 breast
NCI/ADR-RES ovarian = tested on: NCI/ADR-RES ovarian
M14 melanoma = tested on: M14 melanoma
NCI-H460 lung = tested on: NCI-H460 lung
NCI-H226 lung = tested on: NCI-H226 lung
TK-10 renal = tested on: TK-10 renal
SNB-19 CNS = tested on: SNB-19 CNS
UO-31 renal = tested on: UO-31 renal
IGROV1 ovarian = tested on: IGROV1 ovarian
CCRF-CEM leukemia = tested on: CCRF-CEM leukemia
HT29 colon = tested on: HT29 colon
HS 578T breast = tested on: HS 578T breast
MDA-MB-231 breast = tested on: MDA-MB-231 breast
HOP-62 NSCLC = tested on: HOP-62 NSCLC

Question: Which results are given for O=C1Nc2cc(OC(F)(F)F)ccc2Oc2ccc(-c3ccnc(N4CC[C@H](O)C4)c3)cc21?
Answer: GI50 (U251 CNS): 35.8 nM; TGI (U251 CNS): 1850 nM; GI50 (ACHN renal): 55.2 nM; TGI (ACHN renal): 5150 nM; GI50 (UACC-62 melanoma): < 17.3 nM; TGI (UACC-62 melanoma): 5240 nM; GI50 (OVCAR-3 ovarian): < 11.7 nM; TGI (OVCAR-3 ovarian): 1330 nM; GI50 (PC-3 prostate): 19.4 nM; TGI (PC-3 prostate): 5480 nM; GI50 (SK-OV-3 ovarian): 36.7 nM; TGI (SK-OV-3 ovarian): 14700 nM; GI50 (HCC-2998 colon): 30 nM; TGI (HCC-2998 colon): 1550 nM; GI50 (SK-MEL-2 melanoma): 32.1 nM; TGI (SK-MEL-2 melanoma): 18500 nM; GI50 (HL-60(TB) leukemia): < 10 nM; TGI (HL-60(TB) leukemia): 105 nM; GI50 (SF-539 CNS): 22.7 nM; TGI (SF-539 CNS): 1040 nM; GI50 (CAKI-1 renal): < 10 nM; TGI (CAKI-1 renal): 9640 nM; GI50 (BT-549 breast): 138 nM; TGI (BT-549 breast): 1690 nM; GI50 (MOLT-4 leukemia): 32.7 nM; TGI (MOLT-4 leukemia): 2160 nM; GI50 (KM12 colon): < 15.2 nM; TGI (KM12 colon): 2470 nM; GI50 (NCI-H522 lung): < 13.1 nM; TGI (NCI-H522 lung): 42.9 nM; GI50 (K-562 leukemia): < 10 nM; TGI (K-562 leukemia): 1730 nM; GI50 (SN12C renal): 103 nM; TGI (SN12C renal): 2680 nM; GI50 (SF-268 CNS): 485 nM; TGI (SF-268 CNS): 15800 nM; GI50 (SF-295 CNS): 16.6 nM; TGI (SF-295 CNS): 6260 nM; GI50 (EKVX NSCLC): 43.5 nM; TGI (EKVX NSCLC): 20400 nM; GI50 (COLO 205 colon): 18.1 nM; TGI (COLO 205 colon): 51.3 nM; GI50 (OVCAR-8 ovarian): 34.3 nM; TGI (OVCAR-8 ovarian): 651 nM; GI50 (HOP-92 NSCLC): 1810 nM; TGI (HOP-92 NSCLC): 18700 nM; GI50 (A498 renal): 10600 nM; TGI (A498 renal): 25900 nM; GI50 (RXF 393 renal): < 15.4 nM; TGI (RXF 393 renal): 323 nM; GI50 (LOX IMVI melanoma): 32 nM; TGI (LOX IMVI melanoma): 1490 nM; GI50 (SK-MEL-5 melanoma): 37.8 nM; TGI (SK-MEL-5 melanoma): 487 nM; GI50 (SNB-75 CNS): < 16.3 nM; TGI (SNB-75 CNS): 1120 nM; GI50 (MDA-MB-435): < 10 nM; TGI (MDA-MB-435): < 11.6 nM; GI50 (RPMI-8226 leukemia): 34.9 nM; TGI (RPMI-8226 leukemia): 2050 nM; GI50 (786-0 renal): 31.6 nM; TGI (786-0 renal): 2740 nM; GI50 (OVCAR-4 ovarian): 1120 nM; TGI (OVCAR-4 ovarian): 3000 nM; GI50 (MALME-3M melanoma): 48.9 nM; TGI (MALME-3M melanoma): 2090 nM; GI50 (A549 NSCLC): 39.2 nM; TGI (A549 NSCLC): 3460 nM; GI50 (SR leukemia): < 10 nM; TGI (SR leukemia): 2210 nM; GI50 (SK-MEL-28 melanoma): 1200 nM; TGI (SK-MEL-28 melanoma): 2600 nM; GI50 (HCT-116 colon): < 10 nM; TGI (HCT-116 colon): 1190 nM; GI50 (HCT-15 colon): 10.3 nM; TGI (HCT-15 colon): 2860 nM; GI50 (OVCAR-5 ovarian): 49.2 nM; TGI (OVCAR-5 ovarian): 6370 nM; GI50 (DU-145 prostate): 44.6 nM; TGI (DU-145 prostate): 4380 nM; GI50 (SW-620 colon): < 17.7 nM; TGI (SW-620 colon): 1660 nM; GI50 (UACC-257 melanoma): 3600 nM; TGI (UACC-257 melanoma): 9370 nM; GI50 (MCF7 breast): < 10 nM; TGI (MCF7 breast): 1620 nM; GI50 (NCI/ADR-RES ovarian): 30.6 nM; TGI (NCI/ADR-RES ovarian): 6250 nM; GI50 (M14 melanoma): 11.4 nM; TGI (M14 melanoma): 1810 nM; GI50 (NCI-H460 lung): < 12.9 nM; TGI (NCI-H460 lung): 1060 nM; GI50 (NCI-H226 lung): 280 nM; TGI (NCI-H226 lung): 5540 nM; GI50 (TK-10 renal): 7650 nM; TGI (TK-10 renal): 17300 nM; GI50 (SNB-19 CNS): 36.6 nM; TGI (SNB-19 CNS): 5740 nM; GI50 (UO-31 renal): 57 nM; TGI (UO-31 renal): 5630 nM; GI50 (IGROV1 ovarian): 43.1 nM; TGI (IGROV1 ovarian): 8780 nM; GI50 (CCRF-CEM leukemia): 25.1 nM; TGI (CCRF-CEM leukemia): 2600 nM; GI50 (HT29 colon): 16.3 nM; TGI (HT29 colon): 261 nM; GI50 (HS 578T breast): 23.9 nM; TGI (HS 578T breast): 5590 nM; GI50 (MDA-MB-231 breast): 48 nM; TGI (MDA-MB-231 breast): 1830 nM; GI50 (HOP-62 NSCLC): 35.1 nM; TGI (HOP-62 NSCLC): 4530 nM
